Laboratory results published in patent US6805878B2, “Transdermal administration of ACE inhibitors” (Noven Pharmaceuticals, Inc., priority 2001, dated 2004).
Structures can show the parent of a compound that is named as a salt.

Columns and labels:
[1] = Human cadaver skin permeation (flux) study, modified Franz diffusion cells; format: in vitro ADME; settings: for flux of a dermal composition: carrier composition of Example 2, different cadaver skin, FIG. 1; for flux through skin (in words): enalapril ethyl ester prodrug compared with enalapril maleate form
Description: (§1) Human cadaver skin permeation studies were performed to quantitatively determine the effective permeation of enalapril ethyl ester through the stratum corneum. The stratum corneum was obtained from split thickness, cryo-preserved cadaver skin by the heat separation technique (˜55°). Samples of 5/16″ diameter were cut from the laminate, in triplicate, and mounted onto ½″ cut pieces of the stratum corneum. These samples were then placed on modified Franz diffusion cells. The receptor was filled with 7.5 mL of 0.9% NaCl and 0.01% NaN3 in deionized water. The cells were maintained at a constant 32° C. and were magnetically stirred at approximately 300 rpm. At specified time points, samples of the receptor phase were taken with complete replacement of the receptor phase. These samples were quantified by high-performance liquid chromatography (HPLC) utilizing Waters HPLC instrumentation. C-8(15 cm×4.6 mm) 5 μm particle size columns ([…] made by MetaChem Technologies, Inc.; Torrance, Calif.) were used at 50° C. (column temperature). The mobile phase contained 50% acetonitrile: 50% buffer (10 mM KH2PO4, pH=2.7). The detection wavelength was 214 nm. HPLC flow rate is 1.5 mL/min.

[2] = system: esterase enzyme in the skin; test: Hydrolysis of penetrated prodrug in the skin after permeation; format: in vitro ADME, Human
Description: as §1
More than 50% of the penetrated enalapril ethyl ester was hydrolyzed into enalaprilat after permeation through the skin.

Compound | flux of a dermal composition [1] | flux through skin (in words) [1] | penetrated enalapril ethyl ester hydrolyzed into enalaprilat ([2]; after permeation through the skin) | hydrolysis of the ethyl ester group on the proline moiety ([2]; by an esterase enzyme in the skin)
CCOC(=O)[C@H](CCc1ccccc1)N[C@@H](C)C(=O)N1CCC[C@H]1C(=O)OCC [enalapril ethyl ester] | 4.8 µg/cm²/h | significantly greater | More than 50% | selectively hydrolyzed
CCOC(=O)[C@H](CCc1ccccc1)N[C@@H](C)C(=O)N1CCC[C@H]1C(=O)O [enalapril maleate, reference compound] | 0.2 μg/cm^2/sec | negligible |  | 
